These results are taken from patent US10220040B2, “Compounds, compositions and methods useful for cholesterol mobilization” (Cerenis Therapeutics Holding SA, priority 2010, dated 2019).

Each structure is given as a SMILES string.

In one test the test system is New Zealand rabbits. The experiment in a line: Plaque regression in high-cholesterol diet fed New Zealand rabbits. The class given is in vivo, rabbit. Here is the method:
FIG. 20A-M: Plaque regression in rabbits treated with Compound IIa. New Zealand rabbits (n=15) with atherosclerotic plaques developed after 2 months of high-cholesterol diet, were treated with Compound IIa at 30, 100 and 300 μg/kg once a day by oral gavage for 4 weeks. FIG. 20A: lipids extracted from aortas were analyzed by GC/MS for cholesterol concentration. Dark bars, unesterified cholesterol; superimposed gray bars, total cholesterol. *p<0.05. FIG. 20B, FIG. 20C and FIG. 20D: Plasma VLDL cholesterol, LDL cholesterol and HDL cholesterol were resolved as described in FIG. 2. The results are expressed as the percentage from pre-dose. FIG. 20E: apoB concentration in plasma was determined by Western blot analysis. FIG. 20F: triglycerides were measured in the plasma using the kit from Biolabo. FIG. 20G: the bile acids concentrations in liver were determined using an enzymatic kit. FIG. 20H and FIG. 20K: hematoxylin/eosin staining of aortas from rabbits dosed with vehicle (FIG. 20H) or Compound IIa at 300 μg/kg (FIG. 20K). FIG. 20I and FIG. 20L: smooth muscle cells staining of aortas from rabbits dosed with vehicle (FIG. 20I) or Compound IIa at 300 μg/kg (FIG. 20L). FIG. 20J and FIG. 20M: macrophages and monocytes staining of aortas from rabbits dosed with vehicle (FIG. 20J) or Compound IIa at 300 μg/kg (FIG. 20M).
FIG. 21A-F: Functionality of plasma from high-cholesterol diet fed rabbits treated with Compound IIa. FIG. 21A: ApoA-I concentration in plasma was measured by SELDI-TOF analysis. Purified ApoA-I from homo-sapiens (MWSELDI=28083 Da) was used as a reference for determination of rabbit ApoA-I (MWSELDI=27838 Da) concentration. The results are expressed as the percentage from pre-dose. FIG. 21B: ApoA-I mRNA level was determined using the QPCR technique. Note the overall decrease in the HDL particle size of treated animals. FIG. 21C; HDL from rabbit plasma were separated according to the size of the different HDL particles using the Lipoprint® system. The data were expressed as the percentage for each HDL subpopulation set to the HDL population in the pre-dose animals. Two main HDL particle sub-populations were quantified (high and intermediate—dark and gray bars respectively). FIG. 21D: example of lipoprotein profiles of rabbit treated with vehicle (gray line) and with Compound IIa (300 μg/kg, dark line) using the Lipoprint® separation technique. FIG. 21E and FIG. 21F: determination of cholesterol efflux capacity of plasma and rabbit HDL, respectively, using pre-loaded [^3H]-cholesterol-oxLDL macrophages. The results are expressed as a percentage of cholesterol efflux. *p<0.05, **p<0.005.
After 2 months of High Cholesterol Diet feeding (0.5% cholesterol) and a wash-out period of 2 weeks, the animals were treated (by oral gavage) once day with Compound IIa at 30, 100 and 300 μg/kg for 4 weeks. Blood samples were collected before the dose administration on day 0 and after 4 weeks of administrations of Compound IIa. After final bleeding, the liver, gallbladder, heart, thoracic and abdominal aorta from heart (left ventricle) to iliac arteries were sampled.
Rabbit aortas were fixed in neutral formalin buffer and embedded in paraffin. Longitudinal 3 μm sections were stained with Hematoxylin-Eosin-Saffron for histology analysis. The tissue sections were deparaffinized and incubated in protein-free block to inhibit the nonspecific binding of primary monoclonal antibodies used for the immunostaining of rabbit monocytes and macrophages (RAM11 obtained from Dako Corp. 1:100 dilution) and smooth muscle cell-specific actin (HHF35 obtained from Dako Corp. 1:100 dilution). Secondary biotinylated […] antibody was used at 1:300 dilution (Dako).
The issue of whether stimulation of the P2Y13r pathway could affect the regression of atherosclerosis pre-induced in the high-cholesterol diet fed rabbits was also addressed. […]

In a further test the test system is C57Bl6 mice. In words: Bile acids physiology after IV injection in mice. It is filed as in vivo. To be noted: intravenously 10 nmol/kg, after 4 h; effect slightly higher than with Cangrelor. The protocol:
FIG. 5A-B: Single-dose effect of the illustrative compounds of the invention on bile acids secretion after IV injection. Mice were fasted for 2 hours and then injected in the caudal vein with the selected molecules (10 nmol/kg) in PBS solution (100 μl). 4 hours later the bile content was analyzed. FIG. 5A. Data are expressed as the concentration of bile acids. FIG. 5B. Data are expressed as the pool of bile acids per mouse (*p<0.05, **p<0.005, ***p<0.0001). Group of animals n=5.
Bile acids are derived from cholesterol and their synthesis is the predominant pathway for catabolism of cholesterol. The HDL uptake by the liver is directly connected with the bile acids secretion and the bile cholesterol clearance. […] An increase of bile acids concentration as well as of the bile volume was observed. All the compounds responded as well as or even better than the control compound (Reference Compound).
Bile acids were diluted in PBS (1:5000) and the concentration was measured according to the manufacturer protocol with slight modifications. Concentrations of bile acids in the standard curve were varied from […] and the enzymatic reaction was performed for 20 minutes. 4 μl of 1:5000 bile dilution was used for concentration determination.

A further test relates to mice. The experiment in a line: Bile acids physiology after one week daily oral treatment. The class given is in vivo. The following applies: oral gavage once daily for a week (0.03 mg/kg). Here is the method: FIG. 13A-B: Single-dose effect of Compound IIa on bile acids secretion after one week treatment. Mice were treated daily with Compound IIa (0.03 mg/kg) by oral gavage. On the day of sacrifice, the mice were fasted for 3 hours followed by an oral gavage (same concentration). 4 hours later the bile content was analyzed. FIG. 13A: data are expressed as the concentration of bile acids. FIG. 13B: data are expressed as the pool of bile acids per mouse weight (*p<0.05). Group of animals n=10.
In the previous experiments, illustrative compounds of the invention were administrated once and the impact on bile physiology was measured after 6 hours. Compound IIa was administrated by oral gavage once daily for a week to allow observation of the consequences on bile physiology of a longer treatment. On the day of sacrifice, the conditions were similar to the dose response experiments. The net impact of Compound IIa on the bile secretion was observed.

The mark [1] stands for this setting: orally, up to 0.3 mg/kg for 4 weeks.

For `CN(C)c1ncc(CN2CCC(c3cc(O)nc(N4CCOCC4)n3)CC2)cn1` [Compound IIa, 6-[1-(2-Dimethylaminopyrimidin-5-ylmethyl)-piperidin-4-yl]-2-morpholin-4-yl-pyrimidin-4-ol], the “regression of atherosclerotic plaques in aorta (decrease of cholesterol content of the entire artery)” value with New Zealand rabbits (orally, doses up to 0.3 mg/kg for 4 weeks) came to 30%. Moreover, in the test on New Zealand rabbits (setting [1]), the “HDL cholesterol and rabbit apoA-I (HPLC, SELDI-TOF)” value was “trend towards an increase”; the “VLDL and LDL cholesterol” value is on record as “decreased slightly”. In the test on New Zealand rabbits (summary statement), the “pre-established atherosclerotic plaques in aortas of rabbits fed with cholesterol chow” value is given as “induced the regression”. In the test on New Zealand rabbits (treated rabbits), the “apoA-I mRNA expression in the liver” value was “increase”; the “bile acid content in the liver” value is “increased”; the “mRNA expressions of LDL receptors and SR-BI in the liver (QPCR)” value is listed as “No change”; the “plasma apoA-I” value is on record as “increase”. Moreover, in the test with C57Bl6 mice, the “bile acids (BA) and free cholesterol secretion into bile” value is “increase”. For the same compound, the “volume of the individual bile compared to vehicle treatment” value in the test with mice is “significant increase”.
